In patent publication US10947284B2, “Fusion molecules” (Pieris Pharmaceuticals GMBH, priority 2015, dated 2021):
Starred links: 1 amine or outer side, 2 acyl side, 3 side chain; linkers in the order of their positions; H or OH if unused. Non-standard residues stand in square brackets, D forms with d. Residues, ends and D or L forms follow the SMILES beside them. *: point of attachment. X1 = O=C([C@@H]1CCNc2c(N[*:1])cc3cc(O)c(O)cc3[n+]21)[*:2]; dOrn(N5-OH,N5-CHO) = N[C@H](CCCN(O)C=O)C(=O)O; Butanoyl(2-oxo,4-COOH) = O=C(O)CCC(=O)C(=O)*; d(aThr) = C[C@@H](O)[C@@H](N)C(=O)O; X2 = O=C1[C@@H](N*)CCCN1[O-]; X3 = O=C1[C@@H](N*)CCCN1O; Orn = NCCC[C@H](N)C(=O)O

What was measured:
[1] = molecular target: T1, hNGAL (human lipocalin 2, parent wild type SEQ ID NO: 1) mutein SEQ ID NO: 19 (Homo sapiens, UniProt P80188, A60E/C107S/D97N/I61V/K154W/K93N/L123Q/L56V/L90R/Q48H/Q69G/R101E/R92H/S147K/S88E/W99S/Y120N/Y126M/Y152G/Y72P); experiment: Solution binding ELISA
T1 construct: made in house; host or cells: E. coli
Procedure: (§5) The residual supernatants were discarded and 20 μl HRP-labeled anti-hNGAL antibody was added at a predetermined optimal concentration in PBS-T/BSA and incubated for 1 h at RT. […] After washing, 20 μl fluorogenic HRP substrate (QuantaBlu, Thermo) was added to each well, and the reaction was allowed to proceed for 15 to 60 minutes. The fluorescence intensity of every well on the plate was read using a fluorescence microplate reader (Tecan or Molecular Devices). […] Curve fitting was performed using GraphPad Prism 4 software.

[2] = molecular target: T2, hNGAL (human lipocalin 2, parent wild type SEQ ID NO: 1) mutein SEQ ID NO: 20 (Homo sapiens, UniProt P80188, A60T/C107S/D97H/K145I/K154W/K93M/L123T/L90R/N116I/Q48H/Q69G/R101E/R92I/S147R/S88D/W99Y/Y120N/Y126Q/Y152M/Y72N); details: solution binding ELISA
T2 construct: made in house; host or cells: E. coli
Procedure: as §5

[3] = molecular target: T3, hNGAL (human lipocalin 2, parent wild type SEQ ID NO: 1) mutein SEQ ID NO: 26 (Homo sapiens, UniProt P80188, A60E/C107S/D97N/E64D/I61V/K145N/K154W/K93N/L123V/L56V/L90R/N116K/Q48H/Q69G/R101E/R92H/S147K/S88E/W99S/Y120N/Y126M/Y152G/Y72P); experiment: Solution binding ELISA
T3 construct: made in house; host or cells: E. coli
Procedure: as §5

[4] = molecular target: T4, hNGAL (human lipocalin 2, parent wild type SEQ ID NO: 1) mutein SEQ ID NO: 27 (Homo sapiens, UniProt P80188, A60T/C107S/D97N/E64D/I61V/K154W/K93N/L123Q/L56V/L90R/Q48H/Q69G/R101E/R92H/S147K/S88E/W99S/Y126M/Y152V/Y72P); experiment: Solution binding ELISA
T4 construct: made in house; host or cells: E. coli
Procedure: as §5

[5] = molecular target: T5, hNGAL (human lipocalin 2, parent wild type SEQ ID NO: 1) mutein SEQ ID NO: 28 (Homo sapiens, UniProt P80188, A60T/C107S/D97N/E64D/I61V/K154W/L123Q/L56V/L90R/N116K/Q48H/Q69G/R101E/R92H/S147K/S88E/W99F/Y120H/Y126M/Y152A/Y72P); experiment: Solution binding ELISA
T5 construct: made in house; host or cells: E. coli
Procedure: as §5

[6] = molecular target: T6, hNGAL (human lipocalin 2, parent wild type SEQ ID NO: 1) mutein SEQ ID NO: 29 (Homo sapiens, UniProt P80188, A60Q/C107S/D97N/E64D/I61V/K154W/K93N/L123H/L56V/L90R/Q48H/Q69G/R101E/R92H/S147K/S88E/Y120N/Y126M/Y152G/Y72P); experiment: Solution binding ELISA
T6 construct: made in house; host or cells: E. coli
Procedure: as §5

[7] = molecular target: T7, hNGAL (human lipocalin 2, parent wild type SEQ ID NO: 1) mutein SEQ ID NO: 30 (Homo sapiens, UniProt P80188, A60T/C107S/D97H/K145I/K154W/K93F/L123M/L56V/L90R/Q48H/Q69G/R101D/R92I/S147R/S88D/W99Y/Y126Q/Y152I/Y72N); experiment: Solution binding ELISA
T7 construct: made in house; host or cells: E. coli
Procedure: as §5

[8] = molecular target: T8, hNGAL (human lipocalin 2, parent wild type SEQ ID NO: 1) mutein SEQ ID NO: 31 (Homo sapiens, UniProt P80188, A60T/C107S/D97H/K145I/K154W/K93R/L123T/L56V/L90R/Q48H/Q69G/R101D/R92I/S147R/S88D/W99Y/Y126Q/Y152I/Y72N); experiment: Solution binding ELISA
T8 construct: made in house; host or cells: E. coli
Procedure: as §5

[9] = molecular target: T9, hNGAL (human lipocalin 2, parent wild type SEQ ID NO: 1) mutein SEQ ID NO: 34 (Homo sapiens, UniProt P80188, A60T/C107S/D97H/K145I/K154W/K93R/L123T/L56V/L90R/N85D/Q48H/Q69G/R101D/R92I/S147R/S88D/T74A/W99Y/Y126Q/Y152I/Y72N); experiment: Solution binding ELISA; details: Example 5
T9 construct: made in house; host or cells: E. coli
Procedure: as §5

[10] = molecular target: T10, Fusion molecule SEQ ID NO: 134 (hNGAL muteins SEQ ID NOs: 36, 16, 53 and 62) (Homo sapiens, UniProt P80188, A60T/C107S/D97H, form not given/K145I/K154W/K93R/L123T/L56V/L90R/N85D/Q69G/R101D/R92I/S147R/S88D/T74A/W99Y/Y126Q/Y152I/Y72N); experiment: Solution binding ELISA; details: binding to target in solution, tracer 0.1 nM, Table 11
T10 construct: made in house
T10 sequence (P80188 with tags, fused parts or gaps with the stated changes, form open): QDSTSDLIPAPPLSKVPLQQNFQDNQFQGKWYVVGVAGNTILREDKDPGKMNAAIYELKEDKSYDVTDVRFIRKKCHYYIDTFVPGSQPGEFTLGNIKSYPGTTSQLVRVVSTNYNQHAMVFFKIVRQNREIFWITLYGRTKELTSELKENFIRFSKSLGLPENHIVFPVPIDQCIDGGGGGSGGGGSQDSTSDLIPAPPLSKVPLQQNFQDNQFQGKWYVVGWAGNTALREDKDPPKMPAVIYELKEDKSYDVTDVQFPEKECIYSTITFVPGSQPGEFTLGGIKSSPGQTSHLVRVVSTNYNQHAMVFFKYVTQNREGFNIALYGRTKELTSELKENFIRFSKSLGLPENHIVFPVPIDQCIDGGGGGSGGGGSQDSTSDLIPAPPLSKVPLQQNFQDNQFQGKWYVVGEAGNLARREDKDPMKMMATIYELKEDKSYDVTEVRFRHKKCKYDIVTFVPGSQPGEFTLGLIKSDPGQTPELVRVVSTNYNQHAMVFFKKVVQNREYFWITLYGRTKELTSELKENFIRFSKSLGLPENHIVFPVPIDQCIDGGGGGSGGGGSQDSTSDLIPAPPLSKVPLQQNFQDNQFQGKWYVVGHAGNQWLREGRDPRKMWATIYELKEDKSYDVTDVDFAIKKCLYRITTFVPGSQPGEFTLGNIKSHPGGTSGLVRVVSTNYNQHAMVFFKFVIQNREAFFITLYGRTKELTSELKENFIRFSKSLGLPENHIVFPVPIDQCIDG

[11] = molecular target: T11, hNGAL (human lipocalin 2, parent wild type SEQ ID NO: 1) mutein SEQ ID NO: 36 (Homo sapiens, UniProt P80188, A60T/C107S/D97H/K145I/K154W/K93R/L123T/L56V/L90R/N85D/Q69G/R101D/R92I/S147R/S88D/T74A/W99Y/Y126Q/Y152I/Y72N); experiment: Surface plasmon resonance (Biacore T200); type: binding; details: SPR, 25° C., Table 2B
T11 construct: made in house; host or cells: E. coli
Procedure: (§6) In a Surface Plasmon Resonance (SPR) based assay a Biacore T200 instrument (GE Healthcare) was used to measure the binding affinity of muteins to pyoverdine I succinyl, -succinamide, -α-ketoglutaryl with complexed iron ion or to pyoverdine II succinyl, -succinamide, -α-ketoglutaryl with complexed iron ion or to pyoverdine III succinyl, -succinamide, -α-ketoglutaryl with complexed iron ion. Muteins selected for binding to pyoverdines and negative control (SEQ ID NO: 64) were biotinylated for 2 h at room temperature applying an appropriate excess of EZ-Link NHS-PEG4-Biotin (Thermo, Cat #21329) followed by separation of non-reacted Biotin using a Zebra Spin Desalting Plate (Thermo, Cat #21329) according to the manufactures instructions.
In the SPR affinity assay, biotinylated muteins and negative control were captured on a sensor chip CAP using the Biotin CAPture Kit (GE Healthcare): Sensor Chip CAP is pre-immobilized with an ssDNA oligo. Undiluted Biotin CAPture Reagent (streptavidin conjugated with the complementary ss-DNA oligo) was applied at a flow rate of 2 μl/min for 300 s. Subsequently, 1 μg/ml to 100 μg/mL of biotinylated muteins or negative control were applied for 300 s at a flow rate of 5 μl/min. […]
Applying a flow rate of 30 μl/min, a single cycle or multi cycle kinetics approach was used with a sample contact time of 120-180 s and a dissociation time of 900-2400 s. […] After ligand immobilization, for analysis using single cycle kinetics all 4-5 concentrations of Pvd were applied consecutively in ascending order before the dissociation was monitored. […] Data were evaluated with Biacore T200 Evaluation software (V 1.0). […]
In the SPR affinity assay, biotinylated muteins and negative control were captured on a sensor chip CAP using the Biotin CAPture Kit (GE Healthcare), wherein the Sensor Chip CAP is pre-immobilized with an ssDNA oligo. […] After ligand immobilization, the four concentrations of Pvd were applied consecutively in ascending order before the dissociation was monitored. […] Data were evaluated with Biacore T200 Evaluation software (V 1.0). […]

[12] = molecular target: T12, Fusion molecule SEQ ID NO: 134 (hNGAL muteins SEQ ID NOs: 36, 16, 53 and 62) (Homo sapiens, UniProt P80188, A60T/C107S/D97H, form not given/K145I/K154W/K93R/L123T/L56V/L90R/N85D/Q69G/R101D/R92I/S147R/S88D/T74A/W99Y/Y126Q/Y152I/Y72N); experiment: Surface plasmon resonance (Biacore T200); type: binding; details: Biacore, 25° C., Table 13
T12 construct: made in house; host or cells: HEK293
T12 sequence (P80188 with tags, fused parts or gaps with the stated changes, form open): as above

[13] = molecular target: T13, hNGAL (human lipocalin 2, parent wild type SEQ ID NO: 1) mutein SEQ ID NO: 56 (Homo sapiens, UniProt P80188, A60F/C107S/D97A/I61H/K145G/K154V/K93A/L123M/L56M/L90P/N116A/Q48H/Q69S/R101I/R92W/S147W/S88H/W99K/Y120G/Y126W/Y152T/Y72P); experiment: Solution binding ELISA
T13 construct: made in house; host or cells: E. coli
Procedure: as §5

[14] = molecular target: T14, hNGAL (human lipocalin 2, parent wild type SEQ ID NO: 1) mutein SEQ ID NO: 57 (Homo sapiens, UniProt P80188, A60Y/C107S/D97R/I61W/K145L/K154N/K93R/L123Q/L56V/L90R/N116P/Q48H/Q69A/R101W/R92W/S147R/S88D/W99D/Y120E/Y126R/Y152A); experiment: Solution binding ELISA
T14 construct: made in house; host or cells: E. coli
Procedure: as §5

[15] = molecular target: hNGAL muteins from affinity optimization of SEQ ID NO: 55 (Homo sapiens, UniProt P80188); experiment: Solution binding ELISA
Procedure: (§1) Solution binding of muteins was assayed by a “Solution binding ELISA”, the principle of which was as follows: a constant concentration of the tested mutein was incubated with variable concentrations of ligands (Pvd I s, sa, αKG+/−Fe/Pvd II s, sa, αKG+/−Fe/Pvd III s, sa, αKG+/−Fe/Pch+/−Fe) for 1 h. After this pre-incubation in solution, an aliquot of the mutein/ligand mixture was transferred to an ELISA plate with biotinylated Pvd I s (+Fe), Pvd II s (+Fe), Pvd III s (+Fe) or Pch immobilized via Neutravidin to measure the remaining concentration of free muteins. The concentration of free (non ligand-bound) muteins was determined via a quantitative ELISA setup.
(§2) In detail, a 384-well plate suitable for fluorescence measurements (Greiner FLUOTRAC™ 600, black flat bottom, high-binding) was coated with 20 μl of Neutravidin at a concentration of 5 μg/ml in PBS overnight at 4 C. After washing, the Neutravidin-coated wells were blocked with 100 μl blocking buffer containing 0.1% Tween 20 and 2% BSA (PBS-T/BSA) for 1 h at room temperature.
(§3) A fixed concentration of muteins was incubated in solution with varying concentrations of ligand (Pvd I s, sa, αKG+/−Fe/Pvd II s, sa, αKG+/−Fe/Pvd III s, sa, αKG+/−Fe/Pch+/−Fe), using a suitable starting concentration which was serially diluted at a 1:3 ratio down to the picomolar range in PBS-T/BSA. […] To allow for transformation of ELISA readout results into absolute free mutein concentrations, a standard curve containing varying concentrations of muteins was prepared in PBS-T/BSA and incubated for 20 min on the same ELISA plate as well.
(§4) The residual supernatants were discarded and 20 μl HRP-labeled anti-hNGAL antibody was added at a predetermined optimal concentration in PBS-T/BSA and incubated for 1 h at RT. […] The fluorescence intensity of every well on the plate was read using a fluorescence microplate reader (Tecan or Molecular Devices). To evaluate the data, free mutein concentration, c(mutein)free, was calculated based on the standard curve results, and plotted versus ligand concentration, c(Ligand). […]

[16] = molecular target: T15, hNGAL (human lipocalin 2, parent wild type SEQ ID NO: 1) mutein SEQ ID NO: 62 (Homo sapiens, UniProt P80188, A60Q/C107S/D65G/D97L/I61W/K145F/K154F/K66R/K93I/L123G/L56H/L90D/N85D/Q69R/R101T/R92A/S147I/S88D/W99R/Y120H/Y126G/Y152A/Y72W); experiment: Surface plasmon resonance (Biacore T200), CM5 chip; type: binding; details: SPR, high concentrations (≥1 μM)
T15 construct: made in house
Procedure: (§7) Subsequently, 5 μg/mL of mutein or the negative control solution in 10 mM acetate pH 4.0 was applied at a flow rate of 10 μl/min until a high immobilization level of approximately 2000 RU was achieved. Residual activated groups were quenched with ethanolamine. The reference channels were treated with EDC/NHS following ethanolamine (blank immobilization).
The binding assay was carried out with a contact time of 180 s, dissociation times of 1200-1800 s and applying a flow rate of 30 μl/min. Measurements were performed at 25° C. Regeneration of the immobilized mutein surface was achieved by three consecutive injections of 10 mM Gly-HCl pH 1.5 (120 s) followed by an extra wash with running buffer and a stabilization period. Data were evaluated with Biacore T200 Evaluation software (V 1.0). Double referencing was used. The 1:1 Binding model was used to fit the raw data.
Subsequently, 5 μg/mL of mutein or the negative control solution in 10 mM acetate pH 4.0 was applied at a flow rate of 10 μl/min until a high immobilization level of approximately 2000 RU was achieved. Residual activated groups were quenched with ethanolamine. The reference channels were treated with EDC/NHS following ethanolamine (blank immobilization). […] The binding assay was carried out with a contact time of 180 s, dissociation times of 1500-1800 s and applying a flow rate of 30 μl/min. Measurements were performed at 25° C. Regeneration of the immobilized mutein surface was achieved by three consecutive injections of 10 mM Gly-HCl pH 1.5 (120 s) followed by an extra wash with running buffer and a stabilization period. Data were evaluated with Biacore T200 Evaluation software (V 1.0). Double referencing was used. The 1:1 Binding model was used to fit the raw data.

[17] = molecular target: lipocalin negative control SEQ ID NO: 64 (Homo sapiens, UniProt P80188, C107S/Q48H); experiment: Surface plasmon resonance (Biacore T200); type: binding
Procedure: as §6
In the SPR affinity assay, biotinylated muteins and negative control were captured on a sensor chip CAP using the Biotin CAPture Kit (GE Healthcare): Sensor Chip CAP is pre-immobilized with an ssDNA oligo. Undiluted Biotin CAPture Reagent (streptavidin conjugated with the complementary ss-DNA oligo) was applied at a flow rate of 2 μl/min for 300 s. Subsequently, 1 μg/ml to 100 μg/mL of biotinylated muteins or negative control were applied for 300 s at a flow rate of 5 μl/min. The reference channel was loaded with Biotin CAPture Reagent only.
Applying a flow rate of 30 μl/min, a single cycle or multi cycle kinetics approach was used with a sample contact time of 120-180 s and a dissociation time of 900-2400 s. […] After ligand immobilization, for analysis using single cycle kinetics all 4-5 concentrations of Pvd were applied consecutively in ascending order before the dissociation was monitored. For analysis using multi cycle kinetics 4 dilutions of Pvd were applied, each followed a dissociation phase. All measurements were performed at 25° C. […] Data were evaluated with Biacore T200 Evaluation software (V 1.0). Double referencing was used. A 1:1 Binding model was used to fit the raw data.
as §7
In the SPR affinity assay, biotinylated muteins and negative control were captured on a sensor chip CAP using the Biotin CAPture Kit (GE Healthcare), wherein the Sensor Chip CAP is pre-immobilized with an ssDNA oligo. Undiluted Biotin CAPture Reagent (streptavidin conjugated with the complementary ss-DNA oligo) was applied at a flow rate of 2 μl/min for 300 s. Subsequently, 20 μg/ml to 100 μg/mL of biotinylated muteins or fusion molecule negative control were applied for 300 s at a flow rate of 5 μl/min. The reference channel was loaded with Biotin CAPture Reagent only. To determine the binding affinity, four dilutions of the respective Pvd were prepared in HBS-EP+ buffer (GE Healthcare) and applied to the chip surface. Applying a flow rate of 30 μl/min, a single cycle kinetics approach was used with a sample contact time of 180 s and a dissociation time of 1800-2400 s. […] After ligand immobilization, the four concentrations of Pvd were applied consecutively in ascending order before the dissociation was monitored. All measurements were performed at 25° C. […] Data were evaluated with Biacore T200 Evaluation software (V 1.0). Double referencing was preformed. A 1:1 binding model was used to fit the raw data.

[18] = molecular target: hNGAL (human lipocalin 2), wild type, SEQ ID NO: 1 (Homo sapiens, UniProt P80188); details: cited from earlier work
[19] = molecular target: hNGAL muteins from affinity optimization of SEQ ID NO: 56 (Homo sapiens, UniProt P80188); experiment: Solution binding ELISA
Procedure: as §1, §2, §3, §4

T11 sequence (P80188 21-198 with the stated changes): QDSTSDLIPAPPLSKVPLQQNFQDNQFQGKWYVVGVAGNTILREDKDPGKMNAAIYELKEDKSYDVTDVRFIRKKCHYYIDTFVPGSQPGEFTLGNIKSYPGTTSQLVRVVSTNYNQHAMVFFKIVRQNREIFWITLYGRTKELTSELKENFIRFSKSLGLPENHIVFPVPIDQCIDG
T6 sequence (P80188 other isoform, or with tags, fused parts or gaps with the stated changes): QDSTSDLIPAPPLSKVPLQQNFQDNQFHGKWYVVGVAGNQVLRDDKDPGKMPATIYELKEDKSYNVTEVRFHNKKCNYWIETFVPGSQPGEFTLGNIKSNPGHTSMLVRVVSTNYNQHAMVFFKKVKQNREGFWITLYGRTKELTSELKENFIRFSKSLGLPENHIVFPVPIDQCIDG
T5 sequence (P80188 other isoform, or with tags, fused parts or gaps with the stated changes): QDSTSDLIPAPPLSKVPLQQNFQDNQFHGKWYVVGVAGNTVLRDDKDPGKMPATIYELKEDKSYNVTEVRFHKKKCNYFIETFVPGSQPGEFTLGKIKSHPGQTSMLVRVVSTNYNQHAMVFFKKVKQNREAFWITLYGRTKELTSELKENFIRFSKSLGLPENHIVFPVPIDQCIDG
T13 sequence (P80188 21-198 with the stated changes): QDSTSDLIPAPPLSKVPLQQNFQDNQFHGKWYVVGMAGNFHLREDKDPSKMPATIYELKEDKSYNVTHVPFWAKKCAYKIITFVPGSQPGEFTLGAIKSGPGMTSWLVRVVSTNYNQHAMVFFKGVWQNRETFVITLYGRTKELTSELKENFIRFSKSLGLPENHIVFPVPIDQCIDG
T1 sequence (P80188 other isoform, or with tags, fused parts or gaps with the stated changes): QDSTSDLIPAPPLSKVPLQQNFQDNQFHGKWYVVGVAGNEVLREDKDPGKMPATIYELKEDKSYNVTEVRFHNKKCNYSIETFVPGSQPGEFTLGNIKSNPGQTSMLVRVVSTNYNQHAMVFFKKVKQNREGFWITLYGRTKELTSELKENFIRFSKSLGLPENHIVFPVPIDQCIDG
T14 sequence (P80188 21-198 with the stated changes): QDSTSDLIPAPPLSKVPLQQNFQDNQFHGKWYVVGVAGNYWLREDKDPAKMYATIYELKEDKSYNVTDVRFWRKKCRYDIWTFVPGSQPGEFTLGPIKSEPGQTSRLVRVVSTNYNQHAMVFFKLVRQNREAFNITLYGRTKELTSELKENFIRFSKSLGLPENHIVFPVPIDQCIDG
T2 sequence (P80188 other isoform, or with tags, fused parts or gaps with the stated changes): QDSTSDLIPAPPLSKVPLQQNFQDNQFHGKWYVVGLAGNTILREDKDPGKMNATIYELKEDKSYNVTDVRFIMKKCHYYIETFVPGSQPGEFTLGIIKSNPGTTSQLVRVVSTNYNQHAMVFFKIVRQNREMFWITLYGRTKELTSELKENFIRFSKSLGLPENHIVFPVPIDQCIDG
lipocalin negative control SEQ ID NO: 64, sequence (P80188 21-198 Q48H/C107S): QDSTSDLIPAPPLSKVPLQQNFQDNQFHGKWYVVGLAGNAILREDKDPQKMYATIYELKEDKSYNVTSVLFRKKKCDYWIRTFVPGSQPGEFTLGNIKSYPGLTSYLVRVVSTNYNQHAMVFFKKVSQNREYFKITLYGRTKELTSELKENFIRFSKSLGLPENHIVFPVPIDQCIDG
T3 sequence (P80188 other isoform, or with tags, fused parts or gaps with the stated changes): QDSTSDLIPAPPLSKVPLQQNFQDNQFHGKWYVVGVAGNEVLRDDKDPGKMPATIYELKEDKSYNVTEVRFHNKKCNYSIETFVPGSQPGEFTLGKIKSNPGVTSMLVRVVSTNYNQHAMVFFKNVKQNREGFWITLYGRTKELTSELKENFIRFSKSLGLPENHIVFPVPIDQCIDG
T8 sequence (P80188 other isoform, or with tags, fused parts or gaps with the stated changes): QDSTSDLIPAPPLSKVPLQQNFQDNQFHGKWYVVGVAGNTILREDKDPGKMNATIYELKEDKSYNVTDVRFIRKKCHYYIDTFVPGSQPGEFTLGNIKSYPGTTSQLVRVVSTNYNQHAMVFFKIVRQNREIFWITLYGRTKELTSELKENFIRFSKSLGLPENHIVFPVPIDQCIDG
T4 sequence (P80188 other isoform, or with tags, fused parts or gaps with the stated changes): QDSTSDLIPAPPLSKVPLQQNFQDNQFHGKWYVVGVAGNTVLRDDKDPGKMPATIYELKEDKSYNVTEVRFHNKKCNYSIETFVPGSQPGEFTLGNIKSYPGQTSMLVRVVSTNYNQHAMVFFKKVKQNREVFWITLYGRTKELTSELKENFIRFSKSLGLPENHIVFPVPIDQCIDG
hNGAL muteins from affinity optimization of SEQ ID NO: 55, sequence (P80188 21-198, stated change not applied): as the sequence (P80188 21-198 Q48H/C107S) above, with H28Q, S87C counted along it
T7 sequence (P80188 other isoform, or with tags, fused parts or gaps with the stated changes): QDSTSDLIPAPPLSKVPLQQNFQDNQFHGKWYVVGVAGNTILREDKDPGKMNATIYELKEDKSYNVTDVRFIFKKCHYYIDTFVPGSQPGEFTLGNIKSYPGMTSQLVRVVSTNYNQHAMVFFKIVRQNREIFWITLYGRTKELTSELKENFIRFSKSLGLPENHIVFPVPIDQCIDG
T9 sequence (P80188 other isoform, or with tags, fused parts or gaps with the stated changes): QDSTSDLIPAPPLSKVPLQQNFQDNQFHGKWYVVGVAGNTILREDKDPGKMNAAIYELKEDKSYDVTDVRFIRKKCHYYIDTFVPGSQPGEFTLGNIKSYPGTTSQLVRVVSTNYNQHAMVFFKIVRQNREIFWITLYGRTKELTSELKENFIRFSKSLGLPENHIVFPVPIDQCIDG
T15 sequence (P80188 21-198 with the stated changes): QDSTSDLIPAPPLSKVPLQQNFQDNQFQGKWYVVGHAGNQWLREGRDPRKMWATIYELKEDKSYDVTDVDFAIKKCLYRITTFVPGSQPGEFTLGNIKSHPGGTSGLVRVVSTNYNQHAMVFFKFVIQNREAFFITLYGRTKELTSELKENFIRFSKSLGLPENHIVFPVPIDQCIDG
hNGAL muteins from affinity optimization of SEQ ID NO: 56, sequence (P80188 21-198, stated change not applied): as the sequence (P80188 21-198 Q48H/C107S) above, with H28Q, S87C counted along it
hNGAL (human lipocalin 2), wild type, SEQ ID NO: 1, sequence (P80188 21-198): as the sequence (P80188 21-198 Q48H/C107S) above, with H28Q, S87C counted along it

C[C@@H](O)[C@@H](NC(=O)CNC(=O)[C@H](CCCN)NC(=O)[C@@H](CCCN([O-])C=O)NC(=O)[C@@H](CO)NC(=O)[C@@H]1CCNc2c(NC(=O)C(=O)CCC(=O)O)cc3cc([O-])c([O-])cc3[n+]21)C(=O)N[C@@H](CO)C(=O)N[C@H]1CCCN([O-])C1=O.[Fe+3] [Pvd II aKG (+Fe), Pvd type II α-ketoglutaryl] ({Butanoyl(2-oxo,4-COOH)}-[X1][dS][dOrn(N5-OH,N5-CHO)][Orn]G[d(aThr)]S-X2)
IC50 [1]: 21 nM | IC50 [2]: 85 nM | IC50 [3]: 1.3 nM | IC50 [4]: 1.97 nM | IC50 [5]: 2.25 nM | IC50 [6]: 1.9 nM | IC50 [7]: 3 nM | IC50 [8]: 1.1 nM | IC50 [9]: 1.6 nM | IC50 [10]: 0.88 nM | Kd [11]: 1.97 nM | koff [11]: 5.62e-05 s⁻¹ | kon [11]: 28600 M⁻¹ s⁻¹ | Kd [12]: 1.19 nM

C[C@@H](O)[C@@H](NC(=O)CNC(=O)[C@H](CCCN)NC(=O)[C@@H](CCCN(O)C=O)NC(=O)[C@@H](CO)NC(=O)[C@@H]1CCNc2c(NC(=O)C(=O)CCC(=O)O)cc3cc(O)c(O)cc3[n+]21)C(=O)N[C@@H](CO)C(=O)N[C@H]1CCCN(O)C1=O [Pvd II aKG (−Fe), Pvd type II α-ketoglutaryl] ({Butanoyl(2-oxo,4-COOH)}-[X1][dS][dOrn(N5-OH,N5-CHO)][Orn]G[d(aThr)]S-X3)
IC50 [1]: 34 nM | IC50 [2]: 89 nM | IC50 [3]: 0.75 nM | IC50 [4]: 1.4 nM | IC50 [5]: 1.65 nM | IC50 [6]: 1.6 nM | IC50 [7]: 2.85 nM | IC50 [8]: 0.64 nM | IC50 [9]: 1.2 nM | IC50 [10]: 0.81 nM | Kd [12]: 3.27 nM

CN1C([C@H]2CSC(c3ccccc3O)=N2)SC[C@H]1C(=O)O (stereo partly drawn) [pch (−Fe), pyochelin]
affinity (in words) [13]: weak affinity or not at all | affinity (in words) [14]: weak affinity or not at all | improved affinity ([15]; compared with SEQ ID NO: 55): more than 75 fold

pyoverdine
binding [16]: absence of binding | binding ([17]; Biacore, Example 18): did not show binding | binding [18]: does not bind

CN1C([C@H]2CSC(c3ccccc3O)=N2)SC[C@H]1C(=O)O.[Fe+3] (stereo partly drawn) [pch (+Fe), pyochelin]
affinity (in words) [13]: two- to three digit nM affinity | affinity (in words) [14]: two- to three digit nM affinity | binding ([17]; SPR, analyte at 200 nM): absence of binding | affinity (in words) [15]: single digit nM affinity | affinity (in words) [19]: no or weak affinity
